Measured values published in PMC5146859, “Phase 1/2 study of pacritinib, a next generation JAK2/FLT3 inhibitor, in myelofibrosis or other myeloid malignancies” (Journal of Hematology & Oncology, 2016).

System: patients with advanced myeloid malignancies
Assay: Phase 1 safety: adverse events (NCIC-CTCAE version 3.0)
Format: in vivo, human
Description: At screening/baseline, patients underwent a medical history, physical examination, vital sign assessment, ECOG PS assessment, electrocardiogram, and assessment of hematologic parameters and blood chemistry. Hematology/blood chemistry, physical examinations, and vital sign assessments were performed throughout treatment. Toxicity was assessed using the National Cancer Institute Common Terminology Criteria for Adverse Events (NCIC-CTCAE), version 3.0, with relationship to treatment assigned by the investigator and were recorded from the first dose of pacritinib until 30 days after the last dose. Bone marrow biopsy and/or aspirate samples were drawn at baseline, on day 1 of cycle 4 and cycle 10, as clinically indicated, and at the termination visit. Disease response and progression were determined using the relevant International Working Group (IWG) criteria.
The efficacy-evaluable population included those patients with a baseline and corresponding follow-up value. The safety population included all enrolled patients who received ≥1 dose of pacritinib.

## C1=C/COCc2cc(ccc2OCCN2CCCC2)Nc2nccc(n2)-c2cccc(c2)COC/1 [pacritinib, 11-(2-pyrrolidin-1-yl-ethoxy)-14,19-dioxa-5,7,26-triaza-tetracyclo[19.3.1.1(2,6). 1(8,12)]heptacosa-1(25),2(26),3,5,8,10,12(27),16,21,23-decaene]
Phase 1
  Grade 4 gastrointestinal AEs: No grade 4 gastrointestinal AEs occurred
  Relation of fatal AEs to treatment: None of the AEs were considered to be related to treatment
Phase 1, 100 mg, n = 3
  Treatment-emergent AE: Abdominal distension: 0 n (%)
  Treatment-emergent AE: Abdominal pain: 1 (33.3) n (%)
  Treatment-emergent AE: Anemia: 0 n (%)
  Treatment-emergent AE: Any AE: 3 (100.0) n (%)
  Treatment-emergent AE: Asthenia: 2 (66.7) n (%)
  Treatment-emergent AE: Back pain: 1 (33.3) n (%)
  Treatment-emergent AE: Cardiac murmur: 1 (33.3) n (%)
  Treatment-emergent AE: Chills: 0 n (%)
  Treatment-emergent AE: Constipation: 2 (66.7) n (%)
  Treatment-emergent AE: Cough: 1 (33.3) n (%)
  Treatment-emergent AE: Decreased appetite: 2 (66.7) n (%)
  Treatment-emergent AE: Dehydration: 0 n (%)
  Treatment-emergent AE: Diarrhea: 2 (66.7) n (%)
  Treatment-emergent AE: Dizziness: 0 n (%)
  Treatment-emergent AE: Dyspnea: 2 (66.7) n (%)
  Treatment-emergent AE: Edema peripheral: 2 (66.7) n (%)
  Treatment-emergent AE: Epistaxis: 2 (66.7) n (%)
  Treatment-emergent AE: Fatigue: 1 (33.3) n (%)
  Treatment-emergent AE: Hyperbilirubinemia: 1 (33.3) n (%)
  Treatment-emergent AE: Hyperuricemia: 1 (33.3) n (%)
  Treatment-emergent AE: Insomnia: 1 (33.3) n (%)
  Treatment-emergent AE: Nausea: 0 n (%)
  Treatment-emergent AE: Neutropenia: 1 (33.3) n (%)
  Treatment-emergent AE: Night sweats: 1 (33.3) n (%)
  Treatment-emergent AE: Pain in extremity: 3 (100.0) n (%)
  Treatment-emergent AE: Petechiae: 2 (66.7) n (%)
  Treatment-emergent AE: Pyrexia: 1 (33.3) n (%)
  Treatment-emergent AE: Skin lesion: 0 n (%)
  Treatment-emergent AE: Thrombocytopenia: 1 (33.3) n (%)
  Treatment-emergent AE: Upper respiratory tract infection: 0 n (%)
  Treatment-emergent AE: Vomiting: 0 n (%)
Phase 1, 150 mg, n = 6
  Treatment-emergent AE: Abdominal distension: 0 n (%)
  Treatment-emergent AE: Abdominal pain: 1 (16.7) n (%)
  Treatment-emergent AE: Anemia: 1 (16.7) n (%)
  Treatment-emergent AE: Any AE: 6 (100.0) n (%)
  Treatment-emergent AE: Asthenia: 2 (33.3) n (%)
  Treatment-emergent AE: Back pain: 2 (33.3) n (%)
  Treatment-emergent AE: Cardiac murmur: 0 n (%)
  Treatment-emergent AE: Chills: 2 (33.3) n (%)
  Treatment-emergent AE: Constipation: 2 (33.3) n (%)
  Treatment-emergent AE: Cough: 1 (16.7) n (%)
  Treatment-emergent AE: Decreased appetite: 2 (33.3) n (%)
  Treatment-emergent AE: Dehydration: 1 (16.7) n (%)
  Treatment-emergent AE: Diarrhea: 2 (33.3) n (%)
  Treatment-emergent AE: Dizziness: 0 n (%)
  Treatment-emergent AE: Dyspnea: 1 (16.7) n (%)
  Treatment-emergent AE: Edema peripheral: 2 (33.3) n (%)
  Treatment-emergent AE: Epistaxis: 1 (16.7) n (%)
  Treatment-emergent AE: Fatigue: 1 (16.7) n (%)
  Treatment-emergent AE: Hyperbilirubinemia: 1 (16.7) n (%)
  Treatment-emergent AE: Hyperuricemia: 1 (16.7) n (%)
  Treatment-emergent AE: Insomnia: 1 (16.7) n (%)
  Treatment-emergent AE: Nausea: 1 (16.7) n (%)
  Treatment-emergent AE: Neutropenia: 2 (33.3) n (%)
  Treatment-emergent AE: Night sweats: 0 n (%)
  Treatment-emergent AE: Pain in extremity: 0 n (%)
  Treatment-emergent AE: Petechiae: 2 (33.3) n (%)
  Treatment-emergent AE: Pyrexia: 2 (33.3) n (%)
  Treatment-emergent AE: Skin lesion: 4 (66.7) n (%)
  Treatment-emergent AE: Thrombocytopenia: 2 (33.3) n (%)
  Treatment-emergent AE: Upper respiratory tract infection: 2 (33.3) n (%)
  Treatment-emergent AE: Vomiting: 1 (16.7) n (%)
Phase 1, 200 mg, n = 9
  Treatment-emergent AE: Abdominal distension: 2 (22.2) n (%)
  Treatment-emergent AE: Abdominal pain: 1 (11.1) n (%)
  Treatment-emergent AE: Anemia: 1 (11.1) n (%)
  Treatment-emergent AE: Any AE: 9 (100.0) n (%)
  Treatment-emergent AE: Asthenia: 1 (11.1) n (%)
  Treatment-emergent AE: Back pain: 0 n (%)
  Treatment-emergent AE: Cardiac murmur: 1 (11.1) n (%)
  Treatment-emergent AE: Chills: 0 n (%)
  Treatment-emergent AE: Constipation: 2 (22.2) n (%)
  Treatment-emergent AE: Cough: 1 (11.1) n (%)
  Treatment-emergent AE: Decreased appetite: 0 n (%)
